Assay results published in publication PMC10951066, “The self-reactive FVIII T cell repertoire in healthy individuals relies on a short set of epitopes and public clonotypes” (Frontiers in Immunology, 2024).

Test system: CD4 T cells from healthy donors
Assay: HLA restriction and FVIII specificity IFN-γ ELISPOT of T cell lines raised with the pool of 18 peptides (four donors)
Type: cell-based, human
Set-up: key to Protein specificty: +: positive T cell responses to both the full-length FVIII protein (protein specificity)
Settings: for intensity (%): four donors, 87 specific T cell lines in total; for Responding donors (%): four healthy donors, T cell lines amplified with pool of 18 FVIII peptides; for HLA restriction (%) DP / HLA restriction (%) DR: percentage of restricted T cell lines, inhibition higher than 50% of ELISPOT count; for HLA restriction (%) DP: anti-HLA-DP (B7/21) 10 μg/ml; for HLA restriction (%) DR: anti-HLA-DR (L243) 10 μg/ml; for Protein specificty: recognition of rFVIII loaded on autologous DCs by peptide-specific T cell lines
Experimental: T cells were incubated with autologous DCs alone (control) or with DCs incubated with rFVIII (0.2 µM), ovalbumin (3 µM), and KLH (1 µM) or PBMCs for FVIII peptides (10 µg/ml) in MultiScreen 96-well plates (Merck Millipore) previously coated with 2.5 µg/mL of anti-human IFN-γ monoclonal antibody (mAb; 1-D1K; Mabtech). The T cell lines and APCs were plated at equal number for both stimulated and unstimulated control conditions. […] The spot number was determined by using the ELISPOT Reader System (Autoimmun Diagnostika, Ebinger, Germany). HLA restriction was assessed using monoclonal antibodies (10 μg/ml) specific to HLA-DP (B7/21), HLA-DQ (SPVL3), or HLA-DR (L243).
Based on the T cell epitope prediction software NetMHCpan4.0 ([23]), we selected 63 20-mer peptides that are predicted for their ability to bind promiscuously, with a percentile score below 10%, at least four HLA class II molecules from a selection of 15 preponderant HLA-DR alleles in our panel (as shown in ST1). The predicted peptides spread all along the full-length FVIII sequence and account for more than 50% of its amino acid coverage. A total of 16 healthy donors with unrelated HLA typing (ST2) were used as sources of T cells to identify FVIII-specific CD4 T cell epitopes. Specific T cell lines were generated by in vitro T cell culture using FVIII and KLH. The peptide specificity of the T cell lines raised against FVIII was assessed by two independent IFN-γ ELISPOT using peptide pools and individual peptides. All donors responded to rFVIII with a total of 409 identified rFVIII-specific T cell lines (Figure 4A). The mean of CD4 T cell precursors was 6.5 cells/M (Figure 4B). Each of the 63 FVIII peptides induced a T cell response in at least one of the donors tested, among the 16 healthy donors tested, with 872 peptide-specific T cell lines identified (Figure 4C). The CD4 T cell epitopes identified were ranked based on their donor coverage capacity (Figure 4D) and response intensity (Figure 4E). Furthermore, 18 out of 63 FVIII T cell epitopes were responsible for 50% of the total T cell response and 100% of the donor coverage. These immunoprevalent epitopes are located in the A1, A3, C1, and C2 domains of the FVIII protein (ST3). Furthermore, four independent healthy donors were used as sources of T cells to characterize the HLA restriction and to assess the reactivity of T cell lines generated with the 18 peptides toward rFVIII. T cell lines were amplified in vitro for 28 days through stimulation with the pool of 18 peptides and then tested through IFN-γ ELISPOT. All four healthy donors tested responded to the pool of 18 FVIII peptides selected, with a total of 87 specific T cell lines identified. Moreover, 16 out of 18 FVIII peptides in the pool generated a specific T cell response among the four donors. A total of 14 of the T cell peptides were tested for recognition of rFVIII-loaded on autologous DCs, and it was confirmed that they were part of the naturally processed FVIII peptides. HLA restriction was assessed by introducing anti-HLA-DR, anti-HLA-DP, and anti-HLA-DQ antibodies. None of the peptides tested was HLA-DQ restricted. Eight peptides were exclusively HLA-DR-restricted, one peptide was HLA-DP, and seven were promiscuously presented on both HLA-DR and HLA-DP molecules (ST4). […] Furthermore, the 18 FVIII peptides selected were ulteriorly tested in an in vitro binding assay to six HLA-DRB1 molecules (as described in ST5).
Four healthy donors were used as the source of CD4 T cells, which were amplified in vitro with the pool of 18 FVIII peptides selected for study. In an initial IFN-γ ELISPOT assay, we screened each of the 18 peptides individually to identify any positive T cell responses to both the full-length FVIII protein (protein specificity) as well as the specific peptide inducing the response. […]

Sequence	intensity (%)	Responding donors (%)	HLA restriction (%) DP	HLA restriction (%) DR	Protein specificty
ATRRYYLGAVELSWDYMQSD [P20-39, 20-mer FVIII peptide, A1 domain]	4,6%	50%	37%	63%	+
DHLFNIAKPRPPWMGLLGPT [P75-94, 20-mer FVIII peptide, A1 domain]	1,1%	25%	100%	–	+
HPQSWVHQIALRMEVLGCEA [P2328-2347, 20-mer FVIII peptide, C2 domain]	1,1%	25%	–	100%	+
INGYIMDTLPGLVMAQDQRI [P1940-1959, 20-mer FVIII peptide, A3 domain]	1,1%	25%	–	100%	–
KARLHLQGRSNAWRPQVNNP [P2226-2245, 20-mer FVIII peptide, C2 domain]	12,6%	50%	23%	77%	+
KEPFSWIKVDLLAPMIIHGI [P2084-2103, 20-mer FVIII peptide, C1 domain]	19,5%	100%	47%	53%	+
KKEEYKMALYNLYPGVFETV [P1986-2005, 20-mer FVIII peptide, A3 domain]	1,1%	25%	–	100%	+
KLARLHYSGSINAWSTKEPF [P2068-2087, 20-mer FVIII peptide, C1 domain]	1,1%	25%	–	100%	–
LGQFLLFCHISSHQHDGMEA [P322-341, 20-mer FVIII peptide, A1 domain]	4,6%	50%	–	100%	+
LLTRYLRIHPQSWVHQIALR [P2320-2339, 20-mer FVIII peptide, C2 domain]	2,3%	25%	25%	75%	+
LSHVDLVKDLNSGLIGALLV [P178-197, 20-mer FVIII peptide, A1 domain]	4,6%	75%	50%	50%	+
PPIIARYIRLHPTHYSIRST [P2161-2180]	9,2%	75%	19%	81%	+
RHYFIAAVERLWDYGMSSSP [P1715-1734, 20-mer FVIII peptide, A3 domain]	18,4%	75%	–	100%	+
SLYISQFIIMYSLDGKKWQT [P2114-2133, 20-mer FVIII peptide, C1 domain]	3,4%	50%	33%	66%	+
VHSIFLEGHTFLVRNHRQAS [P285-304, 20-mer FVIII peptide, A1 domain]	3,4%	50%	–	100%	+
YDTVVITLKNMASHPVSLHA [P100-119, 20-mer FVIII peptide, A1 domain]	8%	50%	–	100%	+
